{"source": "paper PMC5844868", "about": "“Increased intracellular activity of MP1102 and NZ2114 against Staphylococcus aureus in vitro and in vivo” (Scientific Reports, 2018)", "key": {"RAW 264.7 macrophages": {"tested_on": "RAW 264.7 macrophages", "assay_type": "cell-based, mouse", "conditions": "24 h, MTT", "procedure": "The cytotoxicity of MP1102 and NZ2114 was tested by a colorimetric 3-(4, 5-dimethyl-2-thiazolyl)-2, 5-diphenyl-2-H-tetrazolium bromide (MTT) assay. Cells were added into 96-well microtiter plates (2.5 × 10^4 cells/well) and incubated for 24 h. After another 24 h incubation with MP1102 and NZ2114 (1 to 256 μg/ml), MTT solution was added and incubated for 4 h. Followed the removing of the MTT, dimethyl sulfoxide (DMSO) (150 μl/well) was added and the absorbance was measured at 570 nm. Untreated cells were used as a control. The cell survival rate was calculated using the following formula: survival rate (%) = Abs570 nm of treated sample / Abs570 nm of control × 100. The cytotoxicity detection was repeated in triplicate.\n118 were incubated with 1-256 μg/ml for 24 h and subsequently cell viability was determined using the MTT\n119 assay. Results are means ± S.D. for three experiments.\n(1 picture or pasted object on this page, not shown here)"}, "[1]": {"tested_on": "high virulent S. aureus CVCC546", "assay": "Mouse peritonitis model", "assay_type": "in vivo", "conditions": "20 mg/kg, 24 h", "procedure": "The mice were infected by peritoneal injection with different S. aureus strains, including MSSA ATCC25923 (5 × 10^8 CFU), MRSA ATCC43300 (5 × 10^8 CFU) and high virulent CVCC546 (5 × 10^7 CFU), and treated with a single dose of drugs (5 mg/kg for ATCC25923, 20, 30 and 40 mg/kg for ATCC43300 and CVCC546) at 10 min after infection. Twenty-four hours after treatment, the mice were killed and peritoneal fluids were obtained by washing with 5 ml ice-cold PBS. The total number of bacteria in the fluids was determined before any further procedures and then divided into two equal fractions of 1.5 ml each for the following purposes: i) for extracellular bacteria quantification, one fraction was centrifuged for 10 min at 4 °C (300 g) and the supernatant CFU count was quantified and ii) for intracellular bacteria quantification, the other fraction was centrifuged for 5 min at 4 °C (1,000 rpm). The cells were collected and treated with 100 μg/ml gentamicin (MSSA ATCC25923) or 50 μg/ml lysostaphin (MRSA ATCC43300 and high virulent CVCC546) for 1 h at 37 °C to kill extracellular bacteria. The cells were washed twice with ice-cold PBS to remove any anti-extracellular bacterial drug. Subsequently, the cells were lysed and counted as described above for the in vitro experiment method[14],[54]."}}, "note": "Where two headings read alike, the source gives them in different places.", "data": [{"compound": "CN[C@H](CC(C)C)C(=O)N[C@H]1C(=O)N[C@@H](CC(N)=O)C(=O)N[C@H]2C(=O)N[C@H]3C(=O)N[C@H](C(=O)N[C@H](C(=O)O)c4cc(O)cc(O)c4-c4cc3ccc4O)[C@H](O)c3ccc(c(Cl)c3)Oc3cc2cc(c3O[C@@H]2O[C@H](CO)[C@@H](O)[C@H](O)[C@H]2O[C@H]2C[C@](C)(N)[C@H](O)[C@H](C)O2)Oc2ccc(cc2Cl)[C@H]1O", "note": "[Vancomycin]", "values": [{"measurement": "survival rate", "setting": "RAW 264.7 macrophages; 128 μg/ml", "value": 100, "unit": "%"}, {"measurement": "survival rate", "setting": "RAW 264.7 macrophages; 256 μg/ml", "value": 85.9, "unit": "%"}, {"measurement": "log reduction, extracellular", "setting": "[1]", "value": 4.9, "unit": "log"}, {"measurement": "log reduction, intracellular", "setting": "[1]", "value": 3.7, "unit": "log"}, {"measurement": "log reduction, total", "setting": "[1]", "value": 3.9, "unit": "log"}]}]}
